Test results taken from ChEMBL document CHEMBL1129601, “Inhibitors of acyl-CoA: cholesterol O-acyl transferase (ACAT) as hypocholesterolemic agents. CI-1011: an acyl sulfamate with unique cholesterol-lowering activity in animals fed noncholesterol-supplemented diets” (J Med Chem, 1996).
Values joined by “and” are separate entries in the source; they are usually repeats but may differ in a detail not shown here. Identical values can stand only once.

Legend:
[1] = system: Oryctolagus cuniculus; test: Effect on Rabbits (Fed a Cholesterol-Free Casein Diet ) for plasma cholesterol at the dose of 10 mg/kg (post treatment); type: functional, organism-based; design: dose 10 mg/kg
[2] = system: Oryctolagus cuniculus; test: Effect on Rabbits (Fed a Cholesterol-Free Casein Diet ) for plasma cholesterol at the dose of 3 mg/kg (pretreatment); type: functional, organism-based; design: dose 3 mg/kg
[3] = system: Oryctolagus cuniculus; test: Effect on Rabbits (Fed a Cholesterol-Free Casein Diet ) for plasma cholesterol at the dose of 1 mg/kg (post treatment); type: functional, organism-based; design: dose 1 mg/kg
[4] = system: Oryctolagus cuniculus; test: Effect on Rabbits (Fed a Cholesterol-Free Casein Diet ) for plasma cholesterol at the dose of 1 mg/kg (pretreatment); type: functional, organism-based; design: dose 1 mg/kg
[5] = system: Rattus norvegicus; test: Effect on the Cholesterol fed rats for HDL-C in rats at the dose of 0.001 mg/kg by Chroinc screen test; type: functional; further: unit not given here
[6] = system: Rattus norvegicus; test: Effect on the Cholesterol fed rats for HDL-C in rats at the dose of 0.01 mg/kg by Chroinc screen test; type: functional
[7] = system: Rattus norvegicus; test: Effect on the Cholesterol fed rats for HDL-C in rats at the dose of 0.03 mg/kg by Chroinc screen test; type: functional; further: unit not given here
[8] = system: Rattus norvegicus; test: Effect on the Cholesterol fed rats for HDL-C in rats at the dose of 0.3 mg/kg by Chroinc screen test; type: functional; further: unit not given here
[9] = system: Rattus norvegicus; test: Effect on the Cholesterol fed rats for HDL-C in rats at the dose of 1 mg/kg by Chroinc screen test; type: functional; further: unit not given here
[10] = system: Rattus norvegicus; test: Effect on the Cholesterol fed rats for HDL-C in rats at the dose of 3 mg/kg by Chroinc screen test; type: functional
[11] = system: Rattus norvegicus; test: Effect on the Cholesterol fed rats for total cholesterol level in rats at the dose of 0.03 mg/kg by Chroinc screen test; type: functional; further: unit not given here
[12] = system: Rattus norvegicus; test: Effect on the Cholesterol fed rats for total cholesterol level in rats at the dose of 0.1 mg/kg by Chroinc screen test; type: functional; further: unit not given here
[13] = system: Rattus norvegicus; test: Effect on the Cholesterol fed rats for total cholesterol level in rats at the dose of 1 mg/kg by Chroinc screen test; type: functional; further: unit not given here
[14] = system: Rattus norvegicus; test: Effect on the Cholesterol fed rats for total cholesterol level in rats at the dose of 10 mg/kg by Chroinc screen test; type: functional; further: unit not given here
[15] = system: Rattus norvegicus; test: Effect on the Cholesterol fed rats for total cholesterol level in rats at the dose of 3 mg/kg by Chroinc screen test; type: functional
[16] = system: Rattus norvegicus; test: Effect on the Normal, Chow fed rats for Plasma total triglyceride level in rats at the dose of 10 mg/kg; type: functional, organism-based; design: dose 10 mg/kg
[17] = system: Rattus norvegicus; test: Effect on the Normal, Chow fed rats for Plasma total triglyceride level in rats at the dose of 3 mg/kg; type: functional, organism-based; design: dose 3 mg/kg
[18] = system: Rattus norvegicus; test: Effect on the Normal, Chow fed rats for Plasma total triglyceride level in rats at the dose of 30 mg/kg; type: functional, organism-based; design: dose 30 mg/kg
[19] = system: Rattus norvegicus; test: Effect on the Cholesterol fed rats for non-HDL-C in rats at the dose of 0.01 mg/kg by Chroinc screen test; type: functional; further: unit not given here
[20] = system: Rattus norvegicus; test: Effect on the Cholesterol fed rats for non-HDL-C in rats at the dose of 0.03 mg/kg by Chroinc screen test; type: functional; further: unit not given here
[21] = system: Rattus norvegicus; test: Evaluated for %change in cholesterol fed rats for total cholesterol at the dose of 0.1 mg/kg determined by Chronic screen test; type: functional
[22] = system: Rattus norvegicus; test: Evaluated for %change in cholesterol fed rats for total cholesterol at the dose of 1 mg/kg determined by Chronic screen test; type: functional
[23] = system: Rattus norvegicus; test: Evaluated for %change in cholesterol fed rats for total cholesterol at the dose of 3 mg/kg determined by Chronic screen test; type: functional
[24] = system: Rattus norvegicus; test: Evaluated for %change in cholesterol fed rats for HDL-C at the dose of 3 mg/kg determined by Chronic screen test; type: functional
[25] = system: Rattus norvegicus; test: Evaluated for %change in cholesterol fed rats for non-HDL-C at the dose of 0.1 mg/kg determined by Chronic screen test; type: functional
[26] = system: Rattus norvegicus; test: Evaluated for %change in cholesterol fed rats for non-HDL-C at the dose of 0.3 mg/kg determined by Chronic screen test; type: functional
[27] = system: Rattus norvegicus; test: Evaluated for %change in cholesterol fed rats for non-HDL-C at the dose of 10 mg/kg determined by Chronic screen test; type: functional
[28] = system: Rattus norvegicus; test: Evaluated for %change in cholesterol fed rats for non-HDL-C at the dose of 3 mg/kg determined by Chronic screen test; type: functional
[29] = system: Rattus norvegicus; test: Evaluated for %change in cholesterol fed rats for total cholesterol at the dose of 0.001 mg/kg determined by Chronic screen test; type: functional
[30] = system: Rattus norvegicus; test: Evaluated for %change in Normal, Chow fed for rats Plasma total triglyceride plasma level in rats at the dose of 30 mg/kg; type: functional
[31] = system: Rattus norvegicus; test: Evaluated for %change in Normal, Chow fed rats for total cholesterol plasma level in rats at the dose of 3 mg/kg; type: functional
[32] = system: Rattus norvegicus; test: Evaluated for %change in Normal, Chow fed rats for total cholesterol plasma level in rats at the dose of 30 mg/kg; type: functional
[33] = system: Rattus norvegicus; test: Evaluated for %change in cholesterol fed rats at the dose of 0.1 mg/kg determined by Acute screen test; type: functional
[34] = system: Rattus norvegicus; test: Evaluated for %change in cholesterol fed rats at the dose of 0.3 mg/kg determined by Acute screen test; type: functional
[35] = system: Rattus norvegicus; test: Evaluated for %change in cholesterol fed rats at the dose of 10 mg/kg determined by Acute screen test; type: functional
[36] = system: Rattus norvegicus; test: Evaluated for %change in cholesterol fed rats at the dose of 3 mg/kg determined by Acute screen test; type: functional
[37] = system: Rattus norvegicus; test: Evaluated for %change in cholesterol fed rats for HDL-C at the dose of 0.001 mg/kg determined by Chronic screen test; type: functional
[38] = system: Rattus norvegicus; test: Evaluated for %change in cholesterol fed rats for HDL-C at the dose of 0.1 mg/kg determined by Chronic screen test; type: functional
[39] = system: Rattus norvegicus; test: Evaluated for %change in cholesterol fed rats for HDL-C at the dose of 0.3 mg/kg determined by Chronic screen test; type: functional
[40] = system: Rattus norvegicus; test: Evaluated for %change in cholesterol fed rats for HDL-C at the dose of 1 mg/kg determined by Chronic screen test; type: functional
[41] = system: Rattus norvegicus; test: Effect on the Cholesterol fed rats for non-HDL-C in rats at the dose of 0.3 mg/kg by Chroinc screen test; type: functional; further: unit not given here
[42] = system: Rattus norvegicus; test: Effect on the Cholesterol fed rats for non-HDL-C in rats at the dose of 10 mg/kg by Chroinc screen test; type: functional
[43] = system: Rattus norvegicus; test: Effect on the Cholesterol fed rats for non-HDL-C in rats at the dose of 3 mg/kg by Chroinc screen test; type: functional; further: unit not given here
[44] = system: Rattus norvegicus; test: Evaluated for %change in cholesterol fed rats for total cholesterol at the dose of 0.03 mg/kg determined by Chronic screen test; type: functional
[45] = system: Rattus norvegicus; test: Effect on the Normal, Chow fed rats for total cholesterol plasma level in rats at the dose of 10 mg/kg; type: functional, organism-based; design: dose 10 mg/kg
[46] = system: Rattus norvegicus; test: Effect on the Normal, Chow fed rats for total cholesterol plasma level in rats at the dose of 3 mg/kg; type: functional, organism-based; design: dose 3 mg/kg
[47] = system: Rattus norvegicus; test: Effect on the Normal, Chow fed rats for total cholesterol plasma level in rats at the dose of 30 mg/kg; type: functional, organism-based; design: dose 30 mg/kg
[48] = system: Rattus norvegicus; test: Effect on the plasma Cholesterol level in rats at the dose of 0.1 mg/kg by Acute screen test; type: functional, organism-based; design: dose 0.1 mg/kg
[49] = system: Rattus norvegicus; test: Effect on the plasma Cholesterol level in rats at the dose of 0.3 mg/kg by Acute screen test; type: functional, organism-based; design: dose 0.3 mg/kg
[50] = system: Rattus norvegicus; test: Effect on the plasma cholesterol level in rats at the dose of 3 mg/kg by Acute screen test; type: functional, organism-based; design: dose 3 mg/kg
[51] = system: Rattus norvegicus; test: Evaluated for %change in cholesterol fed rats for non-HDL-C at the dose of 1 mg/kg determined by Chronic screen test; type: functional

Structure (SMILES): CC(C)c1cc(C(C)C)c(CC(=O)NS(=O)(=O)Oc2c(C(C)C)cccc2C(C)C)c(C(C)C)c1 [AVASIMIBE]
- Plasma cholesterol [1]: 118 mg/dL
- Plasma cholesterol [2]: 250 mg/dL
- Plasma cholesterol [3]: 184 mg/dL
- Plasma cholesterol [4]: 215 mg/dL
- HDL-C [5]: 16
- HDL-C [6]: 15
- HDL-C [7]: 15
- HDL-C [8]: 20
- HDL-C [9]: 25
- HDL-C [10]: 33
- TC [11]: 334
- TC [12]: 131 and 323
- TC [13]: 86
- TC [14]: 69
- TC [15]: 92
- Plasma TG [16]: 75 mg/dL
- Plasma TG [17]: 95 mg/dL
- Plasma TG [18]: 58 mg/dL
- Non-HDL-C [19]: 604
- Non-HDL-C [20]: 320
- Change [21]: -41% and -40%
- Change [22]: -61%
- Change [23]: -59%
- Change [24]: 140%
- Change [25]: -45% and -41%
- Change [26]: -66%
- Change [27]: -84%
- Change [28]: -72%
- Change [29]: 3%
- Change [30]: -66%
- Change [31]: -16%
- Change [32]: -30%
- Change [33]: -32%
- Change [34]: -56%
- Change [35]: -72%
- Change [36]: -64%
- Change [37]: -3%
- Change [38]: 17% and 7%
- Change [39]: 42%
- Change [40]: 76%
- Non-HDL-C [41]: 70
- Non-HDL-C [42]: 33
- Non-HDL-C [43]: 59
- Change [44]: -38%
- Plasma TC [45]: 44 mg/dL
- Plasma TC [46]: 49 mg/dL
- Plasma TC [47]: 41 mg/dL
- Plasma cholesterol [48]: 124 mg/dL
- Plasma cholesterol [49]: 81 mg/dL
- Plasma cholesterol [50]: 66 mg/dL
- Change [51]: -70%
